Laboratory results as given in publication PMC8903829 (eLife, 2022).
Where “and” joins values, the source holds several entries; their conditions need not be identical. Equal values may be shown once. Entries after “also recorded” stand apart in the source; their conditions may differ.

Tests used:
hNaV1.6 N984K = biological target: T1, hNaV1.6 N984K (Homo sapiens, UniProt Q9UQD0, N984K); assay: Automated patch-clamp, patient-identified variant in Expi293F cells; format: cell-based; design: h1.6-N984K 145756, Mean: scale not given here
T1 construct: expression vector containing the full-length cDNA coding for specific human and mouse sodium channel α-subunit; expressed in transfected cells; host or cells: Expi293F (transient, tetracycline-induced, pcDNA4/TO)
Description: For studies of mutant channels, cDNA plasmids in pcDNA4/TO Mammalian Expression Vector were transiently transfected into Expi293F cells stably expressing human FHF2b and human SCN1B subunit (polyclonal) background using ExpiFectamine 293 Transfection Kits (Gibco,Thermo Fisher Scientific CAT #: A14524). Induction was achieved using Tetracycline (Sigma Aldrich). Transfected cells were used in automated patch-clamp experiments 24 hours postinduction.
(§1) Inorm(CPD)=(ICPD−Icontrol)/(ITTX−Icontrol).

hNaV1.4 = hNaV1.4 (Homo sapiens, UniProt P35499); assay: Qube 384 automated patch-clamp, inactivated-state inhibition
[1] = test system: fast spiking interneurons; assay: Current-clamp recording in brain slices, action-potential firing; format: cell-based, mouse; conditions: for Fast spiking interneurons APs/1s: 0.25 μM, individual neurons; for Cumulative number of action potentials fired by each cell on increasing current injections: 250 nM, fast spiking interneurons
Description: Parasagittal cortical brain slices were prepared from> P21 mice using standard procedures (adapted from Tai et al., PNAS 2014). Briefly, the mouse was deeply anaesthetized with isoflurane and decapitated. The brain was removed and placed into chilled artificial cerebrospinal fluid (aCSF) solution containing (in mM): 125 NaCl, 25 NaHCO3, 2.5 KCl, 1.25 NaH2PO4, 2 CaCl2, 2 MgCl2, 10 d-glucose, pH 7.3, osmolarity adjusted to ~306 mOsm using sucrose. All solutions were saturated with 95% O2 and 5% CO2 constantly perfused with 95% O2/5% CO2. Slices with a thickness of 400 µm were prepared using a vibratome (Ted Pella, Inc). Following sectioning, the slices were placed in a holding chamber and incubated in a water bath at 34 °C for 15 min. The brain slices were removed from the water bath and held at room temperature for 60 min prior to recording.
All experiments involving rodent subjects were performed in accordance with the guidelines of the Canadian Council on Animal Care (CCAC). Following a 60-min incubation at room temperature, a brain slice was selected and placed on the stage of an upright microscope (SliceScope Pro 2000, Scientifica). The slice was constantly perfused with room temperature aCSF, containing 0.1% DMSO as a vehicle control, and oxygenated with 95% O2/5% CO2.The slice was visualized using brightfield microscopy, and a healthy neuron was selected from neocortical layer 5. […] Stimulation was applied in current-clamp mode, and consisted of a series of 1000ms square pulses, beginning at –20 pA and increasing by +20 pA increments (3000ms between pulses).
The slice was incubated in circulating compound for 10 min before repeating the series of square pulse stimulations. Working stock solutions were prepared in DMSO at a concentration of 20 mM.
All data analysis was done offline using ClampFit 10.7 (Molecular Devices). Data are presented as a mean ± SEM. For each sweep, the number of evoked APs was counted, and plotted as a function of current injection (beginning with –20 pA). […] Statistical significance was assessed using paired, two-way, student’s t-test applied at each current injection level with significance considered p < 0.05.

hNaV1.7 = biological target: T2, hNaV1.7 (Homo sapiens, UniProt Q15858); assay: Qube 384 automated patch-clamp, inactivated-state inhibition; format: cell-based
T2 construct: expression vector containing the full-length cDNA coding for specific human and mouse sodium channel α-subunit; expressed in transfected cells
From the text: (§2) All of the cell lines tested negative for mycoplasma.
as §1

mNaV1.2 = biological target: T3, mNaV1.2 (Mus musculus, UniProt B1AWN6); assay: as above; format: cell-based
T3 construct: expression vector containing the full-length cDNA coding for specific human and mouse sodium channel α-subunit; expressed in transfected cells
From the text: as §2, §1

mNaV1.1 = biological target: T4, mNaV1.1 (Mus musculus, UniProt A2APX8); assay: as above; format: cell-based
T4 construct: expression vector containing the full-length cDNA coding for specific human and mouse sodium channel α-subunit; expressed in transfected cells
From the text: as §2, §1

T3 sequence (B1AWN6 whole entry): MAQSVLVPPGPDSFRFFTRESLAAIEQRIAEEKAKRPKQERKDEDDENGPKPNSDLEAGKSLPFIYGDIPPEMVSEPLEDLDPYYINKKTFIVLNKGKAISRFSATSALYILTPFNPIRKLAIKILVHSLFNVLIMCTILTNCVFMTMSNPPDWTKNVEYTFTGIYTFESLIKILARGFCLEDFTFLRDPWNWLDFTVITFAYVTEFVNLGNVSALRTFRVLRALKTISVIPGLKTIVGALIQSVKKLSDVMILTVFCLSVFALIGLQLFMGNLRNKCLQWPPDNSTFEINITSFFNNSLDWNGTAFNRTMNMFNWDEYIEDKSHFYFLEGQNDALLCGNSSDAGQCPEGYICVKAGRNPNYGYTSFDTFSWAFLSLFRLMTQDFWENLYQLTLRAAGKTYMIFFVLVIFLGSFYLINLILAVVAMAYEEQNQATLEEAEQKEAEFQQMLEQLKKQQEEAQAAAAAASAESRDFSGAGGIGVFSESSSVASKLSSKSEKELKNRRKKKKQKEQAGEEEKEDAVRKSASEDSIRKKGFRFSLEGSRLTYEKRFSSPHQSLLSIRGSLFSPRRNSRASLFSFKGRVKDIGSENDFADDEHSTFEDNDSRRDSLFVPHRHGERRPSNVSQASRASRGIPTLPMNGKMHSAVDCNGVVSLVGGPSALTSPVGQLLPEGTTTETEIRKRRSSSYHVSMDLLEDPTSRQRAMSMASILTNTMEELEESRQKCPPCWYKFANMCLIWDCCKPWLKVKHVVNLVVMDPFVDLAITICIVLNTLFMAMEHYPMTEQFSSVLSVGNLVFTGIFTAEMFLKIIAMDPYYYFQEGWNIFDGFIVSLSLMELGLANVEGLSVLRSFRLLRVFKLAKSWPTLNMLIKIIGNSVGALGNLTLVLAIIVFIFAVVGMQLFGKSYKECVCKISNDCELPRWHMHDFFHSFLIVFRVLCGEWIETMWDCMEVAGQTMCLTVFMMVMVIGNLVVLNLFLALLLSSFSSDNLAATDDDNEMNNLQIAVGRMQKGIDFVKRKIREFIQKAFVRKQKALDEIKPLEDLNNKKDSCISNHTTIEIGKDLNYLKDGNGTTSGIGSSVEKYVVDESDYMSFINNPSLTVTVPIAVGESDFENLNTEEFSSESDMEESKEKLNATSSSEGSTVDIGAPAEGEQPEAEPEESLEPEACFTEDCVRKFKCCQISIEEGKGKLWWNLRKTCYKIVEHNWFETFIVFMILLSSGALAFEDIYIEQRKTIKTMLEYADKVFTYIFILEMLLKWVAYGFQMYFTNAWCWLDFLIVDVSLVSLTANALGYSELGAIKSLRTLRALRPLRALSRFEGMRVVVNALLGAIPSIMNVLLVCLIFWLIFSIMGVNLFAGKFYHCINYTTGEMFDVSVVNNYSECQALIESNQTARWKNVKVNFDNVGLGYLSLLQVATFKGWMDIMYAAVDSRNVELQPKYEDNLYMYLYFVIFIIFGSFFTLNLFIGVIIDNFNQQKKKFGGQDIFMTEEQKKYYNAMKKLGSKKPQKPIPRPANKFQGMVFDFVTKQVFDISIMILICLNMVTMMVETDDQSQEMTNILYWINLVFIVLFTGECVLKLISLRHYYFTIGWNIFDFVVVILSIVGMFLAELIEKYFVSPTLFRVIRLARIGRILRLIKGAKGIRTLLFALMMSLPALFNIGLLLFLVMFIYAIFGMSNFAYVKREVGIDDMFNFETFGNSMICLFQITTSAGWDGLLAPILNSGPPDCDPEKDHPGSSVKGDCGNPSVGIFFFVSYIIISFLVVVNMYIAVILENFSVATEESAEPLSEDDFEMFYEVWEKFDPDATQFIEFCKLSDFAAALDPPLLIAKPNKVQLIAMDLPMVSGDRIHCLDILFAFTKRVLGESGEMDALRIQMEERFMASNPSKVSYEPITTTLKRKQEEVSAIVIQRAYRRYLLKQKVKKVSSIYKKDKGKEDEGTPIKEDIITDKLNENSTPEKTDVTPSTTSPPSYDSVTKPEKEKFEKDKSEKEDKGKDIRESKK
T1 sequence (Q9UQD0 whole entry N984K): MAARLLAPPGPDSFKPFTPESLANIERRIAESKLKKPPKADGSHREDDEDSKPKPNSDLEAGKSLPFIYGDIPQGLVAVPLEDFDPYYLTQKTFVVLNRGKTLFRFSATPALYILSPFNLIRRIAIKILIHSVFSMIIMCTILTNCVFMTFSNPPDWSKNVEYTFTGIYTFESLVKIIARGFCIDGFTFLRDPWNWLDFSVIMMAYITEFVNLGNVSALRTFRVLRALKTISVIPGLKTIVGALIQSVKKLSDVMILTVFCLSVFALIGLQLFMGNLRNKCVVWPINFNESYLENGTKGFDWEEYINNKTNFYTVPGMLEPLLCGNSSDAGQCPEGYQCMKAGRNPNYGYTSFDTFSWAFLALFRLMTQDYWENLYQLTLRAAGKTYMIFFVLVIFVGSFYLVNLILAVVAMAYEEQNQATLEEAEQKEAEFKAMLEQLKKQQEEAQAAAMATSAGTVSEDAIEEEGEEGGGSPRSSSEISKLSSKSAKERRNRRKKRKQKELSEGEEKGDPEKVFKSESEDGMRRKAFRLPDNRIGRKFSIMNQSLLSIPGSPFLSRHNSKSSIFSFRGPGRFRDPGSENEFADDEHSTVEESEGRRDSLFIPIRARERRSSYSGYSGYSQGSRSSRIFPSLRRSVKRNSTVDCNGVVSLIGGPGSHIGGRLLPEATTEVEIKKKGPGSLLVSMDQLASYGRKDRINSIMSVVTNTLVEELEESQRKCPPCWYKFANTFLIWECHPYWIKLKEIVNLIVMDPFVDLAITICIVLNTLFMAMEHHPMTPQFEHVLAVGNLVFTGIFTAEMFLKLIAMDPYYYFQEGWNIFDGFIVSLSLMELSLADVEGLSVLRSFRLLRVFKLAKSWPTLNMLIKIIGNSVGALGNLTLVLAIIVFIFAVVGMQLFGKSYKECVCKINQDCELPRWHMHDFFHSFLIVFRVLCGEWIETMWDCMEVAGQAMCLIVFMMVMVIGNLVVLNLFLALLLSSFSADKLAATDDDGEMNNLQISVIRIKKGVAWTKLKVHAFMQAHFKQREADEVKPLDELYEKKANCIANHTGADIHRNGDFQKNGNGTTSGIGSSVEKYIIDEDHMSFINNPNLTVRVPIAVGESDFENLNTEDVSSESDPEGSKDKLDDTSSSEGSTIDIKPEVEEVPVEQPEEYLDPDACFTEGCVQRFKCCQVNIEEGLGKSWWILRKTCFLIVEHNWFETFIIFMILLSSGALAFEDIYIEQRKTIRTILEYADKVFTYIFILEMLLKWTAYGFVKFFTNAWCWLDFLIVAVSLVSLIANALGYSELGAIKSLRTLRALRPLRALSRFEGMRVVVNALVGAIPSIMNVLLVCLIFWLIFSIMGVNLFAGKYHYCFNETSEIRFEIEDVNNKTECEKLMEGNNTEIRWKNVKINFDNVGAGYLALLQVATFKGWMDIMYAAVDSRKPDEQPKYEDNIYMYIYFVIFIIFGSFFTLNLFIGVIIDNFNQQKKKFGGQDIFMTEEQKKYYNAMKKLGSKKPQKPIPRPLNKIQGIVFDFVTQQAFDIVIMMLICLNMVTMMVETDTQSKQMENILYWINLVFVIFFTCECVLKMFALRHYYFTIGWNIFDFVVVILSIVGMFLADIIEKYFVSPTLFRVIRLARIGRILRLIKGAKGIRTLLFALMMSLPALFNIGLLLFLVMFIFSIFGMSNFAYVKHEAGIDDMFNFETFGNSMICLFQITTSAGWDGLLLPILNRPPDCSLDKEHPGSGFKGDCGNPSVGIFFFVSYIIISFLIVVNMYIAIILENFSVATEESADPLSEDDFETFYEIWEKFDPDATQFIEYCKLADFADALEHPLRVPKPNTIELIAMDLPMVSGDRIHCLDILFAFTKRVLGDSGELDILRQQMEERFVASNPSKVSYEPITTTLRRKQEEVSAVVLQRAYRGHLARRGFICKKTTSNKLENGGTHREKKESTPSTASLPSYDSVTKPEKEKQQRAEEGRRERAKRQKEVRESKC

Cc1cc(S(=O)(=O)Nc2cscn2)c(F)cc1N(C)[C@H]1CCN(Cc2ccccc2)C1 [NBI-921352]
IC50 (hNaV1.6 N984K): 32 nM
h1.6-N984K 145756, Mean (hNaV1.6 N984K; -5 LogM): 0.94
h1.6-N984K 145756, Mean (hNaV1.6 N984K; -5.47716 LogM): 0.92
h1.6-N984K 145756, Mean (hNaV1.6 N984K; -5.95429 LogM): 0.89
h1.6-N984K 145756, Mean (hNaV1.6 N984K; -6.4318 LogM): 0.81
h1.6-N984K 145756, Mean (hNaV1.6 N984K; -6.91009 LogM): 0.66
h1.6-N984K 145756, Mean (hNaV1.6 N984K; -7.38722 LogM): 0.56
h1.6-N984K 145756, Mean (hNaV1.6 N984K; -7.85387 LogM): 0.33
h1.6-N984K 145756, Mean (hNaV1.6 N984K; -8.33 LogM): 0.09
IC50 (hNaV1.4): > 30 µM
inhibition at 30 µM (hNaV1.4; read-out: inhibition at the highest concentration tested): < 50%
effect on action-potential firing, fast-spiking interneurons ([1]; 0.25 µM NBI-921352): trend toward slightly increased firing frequency; also recorded: no significant effect
Fast spiking interneurons APs/1s ([1]; 220 pA current injected): 51 APs/1s and 58 APs/1s and 67 APs/1s
Fast spiking interneurons APs/1s ([1]; current injected 0 pA): 0 APs/1s
Fast spiking interneurons APs/1s ([1]; current injected 20 pA): 0 APs/1s
Fast spiking interneurons APs/1s ([1]; current injected 40 pA): 0 APs/1s
Fast spiking interneurons APs/1s ([1]; current injected 60 pA, row): 0 APs/1s (2×) and 17 APs/1s
Fast spiking interneurons APs/1s ([1]; current injected 80 pA, row): 0 APs/1s and 1 APs/1s and 25 APs/1s
Fast spiking interneurons APs/1s ([1]; current injected 100 pA, row): 20 APs/1s and 25 APs/1s and 33 APs/1s
Fast spiking interneurons APs/1s ([1]; current injected 120 pA, row): 28 APs/1s and 33 APs/1s and 39 APs/1s
Fast spiking interneurons APs/1s ([1]; current injected 140 pA, row): 34 APs/1s and 40 APs/1s and 45 APs/1s
Fast spiking interneurons APs/1s ([1]; current injected 160 pA, row): 38 APs/1s and 46 APs/1s and 52 APs/1s
Fast spiking interneurons APs/1s ([1]; current injected 180 pA, row): 43 APs/1s and 50 APs/1s and 57 APs/1s
Fast spiking interneurons APs/1s ([1]; current injected 200 pA, row): 47 APs/1s and 55 APs/1s and 62 APs/1s
Fast spiking interneurons APs/1s ([1]; current injected 220 pA, row): 51 APs/1s and 58 APs/1s and 67 APs/1s
Fast spiking interneurons APs/1s ([1]; current injected 240 pA, row): 55 APs/1s and 62 APs/1s and 73 APs/1s
Fast spiking interneurons APs/1s ([1]; current injected 260 pA, row): 58 APs/1s and 65 APs/1s and 77 APs/1s
Fast spiking interneurons APs/1s ([1]; current injected 280 pA, row): 61 APs/1s and 70 APs/1s and 82 APs/1s
Fast spiking interneurons APs/1s ([1]; current injected 300 pA, row): 65 APs/1s and 73 APs/1s and 86 APs/1s
Fast spiking interneurons APs/1s ([1]; current injected 320 pA, row): 68 APs/1s and 76 APs/1s and 89 APs/1s
Fast spiking interneurons APs/1s ([1]; current injected 340 pA, row): 70 APs/1s and 80 APs/1s and 96 APs/1s
Fast spiking interneurons APs/1s ([1]; current injected 360 pA, row): 73 APs/1s and 83 APs/1s and 100 APs/1s
Fast spiking interneurons APs/1s ([1]; current injected 380 pA, row): 74 APs/1s and 83 APs/1s and 100 APs/1s
Fast spiking interneurons APs/1s ([1]; current injected 400 pA, row): 75 APs/1s and 86 APs/1s and 103 APs/1s
Fast spiking interneurons APs/1s ([1]; current injected 420 pA, row): 77 APs/1s and 87 APs/1s and 101 APs/1s
Fast spiking interneurons APs/1s ([1]; current injected 440 pA, row): 77 APs/1s and 88 APs/1s and 103 APs/1s
Fast spiking interneurons APs/1s ([1]; current injected -20 pA): 0 APs/1s
Cumulative number of action potentials fired by each cell on increasing current injections ([1]; up to current injected 0 pA): 0
Cumulative number of action potentials fired by each cell on increasing current injections ([1]; up to current injected 20 pA): 0
Cumulative number of action potentials fired by each cell on increasing current injections ([1]; up to current injected 40 pA): 0
Cumulative number of action potentials fired by each cell on increasing current injections ([1]; up to current injected 140 pA, listed as NBI-921252): 82 and 99 and 159
Cumulative number of action potentials fired by each cell on increasing current injections ([1]; up to current injected 160 pA, listed as NBI-921252): 120 and 145 and 211
Cumulative number of action potentials fired by each cell on increasing current injections ([1]; up to current injected 180 pA, listed as NBI-921252): 163 and 195 and 268
Cumulative number of action potentials fired by each cell on increasing current injections ([1]; up to current injected 200 pA, listed as NBI-921252): 210 and 250 and 330
Cumulative number of action potentials fired by each cell on increasing current injections ([1]; up to current injected 220 pA, listed as NBI-921252): 261 and 308 and 397
Cumulative number of action potentials fired by each cell on increasing current injections ([1]; up to current injected 240 pA, listed as NBI-921252): 316 and 370 and 470
Cumulative number of action potentials fired by each cell on increasing current injections ([1]; up to current injected 260 pA, listed as NBI-921252): 374 and 435 and 547
Cumulative number of action potentials fired by each cell on increasing current injections ([1]; up to current injected 280 pA, listed as NBI-921252): 435 and 505 and 629
Cumulative number of action potentials fired by each cell on increasing current injections ([1]; up to current injected 300 pA, listed as NBI-921252): 500 and 578 and 715
Cumulative number of action potentials fired by each cell on increasing current injections ([1]; up to current injected 320 pA, listed as NBI-921252): 568 and 654 and 804
Cumulative number of action potentials fired by each cell on increasing current injections ([1]; up to current injected 340 pA, listed as NBI-921252): 638 and 734 and 900
Cumulative number of action potentials fired by each cell on increasing current injections ([1]; up to current injected 360 pA, listed as NBI-921252): 711 and 817 and 1000
Cumulative number of action potentials fired by each cell on increasing current injections ([1]; up to current injected 380 pA, listed as NBI-921252): 785 and 900 and 1100
Cumulative number of action potentials fired by each cell on increasing current injections ([1]; up to current injected 400 pA, listed as NBI-921252): 860 and 986 and 1203
Cumulative number of action potentials fired by each cell on increasing current injections ([1]; up to current injected 420 pA, listed as NBI-921252): 937 and 1073 and 1304
Cumulative number of action potentials fired by each cell on increasing current injections ([1]; up to current injected 440 pA, listed as NBI-921252): 1014 and 1161 and 1407
Cumulative number of action potentials fired by each cell on increasing current injections ([1]; up to current injected -20 pA): 0
hNav1.7 current (352)/(Vehicle), mean (hNaV1.7; -4.52288 Log M): 0.74
hNav1.7 current (352)/(Vehicle), mean (hNaV1.7; -5 Log M): 0.41
hNav1.7 current (352)/(Vehicle), mean (hNaV1.7; -5.47716 Log M): 0.2
hNav1.7 current (352)/(Vehicle), mean (hNaV1.7; -5.95429 Log M): 0.08
hNav1.7 current (352)/(Vehicle), mean (hNaV1.7; -6.91009 Log M): 0.02
hNav1.7 current (352)/(Vehicle), mean (hNaV1.7; -7.38722 Log M): 0.01
hNav1.7 current (352)/(Vehicle), mean (hNaV1.7; -7.85387 Log M): 0.02
hNav1.7 current (352)/(Vehicle), mean (hNaV1.7; -8.30103 Log M): -0.02
IC50 (hNaV1.7; Vh -60 mV, HEK-293): 14 µM
mNaV1.2 current (352)/(Vehicle) (mNaV1.2; -4.22185 Log M): 0.86
mNaV1.2 current (352)/(Vehicle) (mNaV1.2; -4.69897 Log M): 0.58
mNaV1.2 current (352)/(Vehicle) (mNaV1.2; -5.17607 Log M): 0.39
mNaV1.2 current (352)/(Vehicle) (mNaV1.2; -5.65326 Log M): 0.19
mNaV1.2 current (352)/(Vehicle) (mNaV1.2; -6.13018 Log M): 0.14
mNaV1.2 current (352)/(Vehicle) (mNaV1.2; -6.6073 Log M): 0.04
mNaV1.2 current (352)/(Vehicle) (mNaV1.2; -7.08619 Log M): 0.08
mNaV1.2 current (352)/(Vehicle) (mNaV1.2; -7.56864 Log M): 0.05
IC50 (mNaV1.2; Vh -45 mV): 11 µM
mNaV1.1 current (352)/(Vehicle) (mNaV1.1; -4.22185 Log M): 0.61
mNaV1.1 current (352)/(Vehicle) (mNaV1.1; -4.69897 Log M): 0.28
mNaV1.1 current (352)/(Vehicle) (mNaV1.1; -5.17607 Log M): 0.19
mNaV1.1 current (352)/(Vehicle) (mNaV1.1; -5.65326 Log M): 0.12
mNaV1.1 current (352)/(Vehicle) (mNaV1.1; -6.13018 Log M): 0.05
mNaV1.1 current (352)/(Vehicle) (mNaV1.1; -6.6073 Log M): -0.03
mNaV1.1 current (352)/(Vehicle) (mNaV1.1; -7.08619 Log M): -0.01
mNaV1.1 current (352)/(Vehicle) (mNaV1.1; -7.56864 Log M): 0
IC50 (mNaV1.1; Vh -45 mV): 41 µM
